The subject of this experiment is human triple negative breast cancer BC408 subcutaneous xenograft tumor model. Briefly: In vivo pharmacodynamic study on triple negative breast cancer patient-derived xenograft (PDX) subcutaneous tumor model. Details: species or system nude mice. Conditions: for TGI: TGI=1-T/C from relative tumor volumes. The method, then: The tumor masses were inoculated into the right back of the mice, the animals were weighed before administration, and tumor volumes were measured. Grouping was designed in blocks according to the tumor volume, with 8 mice per group except for the vehicle control, which contained 6 mice.
Administration was carried out as in Table 3 below.
Animals were monitored daily for health status and mortality, body weight and tumor volume were measured twice a week, and samples were collected after the last administration. […] T/C % is the relative tumor proliferation rate, i.e., the percentage of the relative tumor volume in the treatment and control groups at a given time point. T and C are relative tumor volumes (RTVs) of the treatment and control groups at a given time point, respectively. The calculation formula is as follows: T/C %=TRTV/CRTV×100% (TRTV: mean RTV for treatment group; CRTV: mean RTV for vehicle control group; RTV=Vt/V0, wherein V0 is the tumor volume of the animal at the time of grouping, and Vt is the tumor volume of the animal after treatment).

The mark [1] stands for this setting: BC408 PDX in female nude mice, compound 29 15 mg/kg oral Qd*5 days/week, paclitaxel injection 25 mg/kg intraperitoneal Qw, 5 weeks.

The structures appear in SMILES notation.

Under setting [1], `Cc1[nH]nc2c1N=C(c1ccccc1Cl)c1cnc(N3CCOCC3)cc1N2` [Compound 29] yielded a Tumor volume of 666 mm^3 and a TGI of 72%. Besides, the “Inhibitory effect on the triple negative breast cancer PDX subcutaneous tumor model (in words)” value (BC408 PDX, doses as in Table 3) was “significant inhibitory effect”.
Consider `CC(=O)O[C@H]1C(=O)[C@@]2(C)[C@H]([C@H](OC(=O)c3ccccc3)[C@]3(O)C[C@H](OC(=O)[C@H](O)[C@@H](NC(=O)c4ccccc4)c4ccccc4)C(C)=C1C3(C)C)[C@]1(OC(C)=O)CO[C@@H]1C[C@@H]2O` [Paclitaxel, paclitaxel, reference compound], for which the TGI under setting [1] is reported as 58%.

The values above are taken from patent US20240245704A1, “PHARMACEUTICAL COMPOSITION AND USE OF MULTI-KINASE INHIBITOR” (TRANSTHERA SCIENCES (NANJING), INC., priority 2021, published 2024).
